{
  "source": "ChEMBL document CHEMBL6096661",
  "about": "“Synthesis, biological evaluation and mechanism study of a novel indole-pyridine chalcone derivative as antiproliferative agent against tumor cells through dual targeting tubulin and HK2” (Eur J Med Chem, 2025)",
  "key": {"LoVo [1]": {"system": "LoVo", "assay": "Antiproliferative activity against human LoVo cells assessed as inhibition of cell growth incubated for 48 hrs by CCK-8 assay", "assay_type": "functional, cell-based"}, "SW1990": {"system": "SW1990", "assay": "Antiproliferative activity against human SW1990 cells assessed as inhibition of cell growth incubated for 48 hrs by CCK-8 assay", "assay_type": "functional, cell-based", "conditions": "SW1990, 48 h"}, "[2]": {"assay": "Cytotoxicity against green monkey Vero cells assessed as inhibition of cell growth incubated for 48 hrs by CCK-8 assay", "assay_type": "toxicity, cell-based", "conditions": "African green monkey (Chlorocebus sabaeus)"}, "[3]": {"assay": "Selectivity ratio of IC50 for cytotoxicity against green monkey Vero cells to IC50 for antiproliferative activity against human LoVo cells", "assay_type": "toxicity, cell-based", "conditions": "Vero cells versus LoVo cells, read-out: Ratio IC50"}, "MDA-MB-231 [4]": {"system": "MDA-MB-231", "assay": "Induction of morphological changes in human MDA-MB-231 assessed as loss of adhesion properties at 0.5 to 2 uM incubated for 48 hrs by microscopic analysis", "assay_type": "functional, cell-based", "conditions": "dose 0.5-2 µM"}, "MDA-MB-231 [5]": {"system": "MDA-MB-231", "assay": "Antiproliferative activity against human MDA-MB-231 cells assessed as inhibition of cell proliferation incubated for 1 day by CCK-8 assay", "assay_type": "functional, cell-based", "conditions": "MDA-MB-231, 24 h"}, "HCT-116 [6]": {"system": "HCT-116", "assay": "Antiproliferative activity against human HCT-116 cells assessed as inhibition of cell proliferation incubated for 1 day by CCK-8 assay", "assay_type": "functional, cell-based", "conditions": "HCT-116, 24 h"}, "HCT-116 [7]": {"system": "HCT-116", "assay": "Antiproliferative activity against human HCT-116 cells assessed as inhibition of cell proliferation incubated for 4 days by CCK-8 assay", "assay_type": "functional, cell-based", "conditions": "HCT-116, 96 h"}, "LoVo [8]": {"system": "LoVo", "assay": "Antiproliferative activity against human LoVo cells assessed as inhibition of cell proliferation incubated for 3 days by CCK-8 assay", "assay_type": "functional, cell-based", "conditions": "72 h"}, "LoVo [9]": {"system": "LoVo", "assay": "Antiproliferative activity against human LoVo cells assessed as inhibition of cell proliferation incubated for 4 days by CCK-8 assay", "assay_type": "functional, cell-based", "conditions": "96 h"}, "Tubulin (Homo sapiens) [10]": {"target": "T1, Tubulin (Homo sapiens) (UniProt P68371+Q9H4B7+P0DPH7+P68366+Q13509+Q71U36+P04350+Q3ZCM7+P07437+P68363+Q9BQE3+Q6PEY2+Q13885+Q9BVA1+Q9BUF5)", "assay": "Disruption of microtubule network in human MDA-MB-231 cells assessed as reduced microtubule network at 1 to 2 uM incubated for 24 hrs by DAPI staining based fluorescence microscopic analysis", "assay_type": "cell-based", "conditions": "dose 1-2 µM"}, "Tubulin (Homo sapiens) [11]": {"target": "T1, Tubulin (Homo sapiens)", "assay": "Disruption of microtubule network in human MDA-MB-231 cells assessed as atrophy fiber structure at 1 to 2 uM incubated for 24 hrs by DAPI staining based fluorescence microscopic analysis", "assay_type": "cell-based", "conditions": "dose 1-2 µM"}, "MDA-MB-231 [12]": {"system": "MDA-MB-231", "assay": "Induction of cell cycle arrest in human MDA-MB-231 cells assessed as increased proportion of cells at S phase at 0.5 to 2 uM by flow cytometric analysis", "assay_type": "functional, cell-based", "conditions": "dose 0.5-2 µM"}, "MDA-MB-231 [13]": {"system": "MDA-MB-231", "assay": "Induction of apoptosis in human MDA-MB-231 cells assessed as nuclear shrinkage at 0.5 to 2 uM incubated for 24 hrs by Hoechst 33342 staining based fluorescence microscopic analysis", "assay_type": "functional, cell-based", "conditions": "dose 0.5-2 µM"}, "MDA-MB-231 [14]": {"system": "MDA-MB-231", "assay": "Induction of apoptosis in human MDA-MB-231 cells assessed as fragmented bright nuclei at 0.5 to 2 uM incubated for 24 hrs by Hoechst 33342 staining based fluorescence microscopic analysis", "assay_type": "functional, cell-based", "conditions": "dose 0.5-2 µM"}, "MDA-MB-231 [15]": {"system": "MDA-MB-231", "assay": "Induction of apoptosis in human MDA-MB-231 cells assessed as pyknotic bright nuclei at 0.5 to 2 uM incubated for 24 hrs by Hoechst 33342 staining based fluorescence microscopic analysis", "assay_type": "functional, cell-based", "conditions": "dose 0.5-2 µM"}, "MDA-MB-231 [16]": {"system": "MDA-MB-231", "assay": "Induction of apoptosis in human MDA-MB-231 cells assessed as upregulation of cleaved-caspase 3 level by Western blotting analysis", "assay_type": "functional, cell-based", "conditions": "dose 0.5-2 µM"}, "MDA-MB-231 [17]": {"system": "MDA-MB-231", "assay": "Induction of apoptosis in human MDA-MB-231 cells assessed as decrease in Caspase 3 level by Western blotting analysis", "assay_type": "functional, cell-based", "conditions": "dose 0.5-2 µM"}, "Hexokinase-2": {"target": "T2, Hexokinase-2 (Homo sapiens, UniProt P52789)", "T2 sequence (P52789 whole entry)": "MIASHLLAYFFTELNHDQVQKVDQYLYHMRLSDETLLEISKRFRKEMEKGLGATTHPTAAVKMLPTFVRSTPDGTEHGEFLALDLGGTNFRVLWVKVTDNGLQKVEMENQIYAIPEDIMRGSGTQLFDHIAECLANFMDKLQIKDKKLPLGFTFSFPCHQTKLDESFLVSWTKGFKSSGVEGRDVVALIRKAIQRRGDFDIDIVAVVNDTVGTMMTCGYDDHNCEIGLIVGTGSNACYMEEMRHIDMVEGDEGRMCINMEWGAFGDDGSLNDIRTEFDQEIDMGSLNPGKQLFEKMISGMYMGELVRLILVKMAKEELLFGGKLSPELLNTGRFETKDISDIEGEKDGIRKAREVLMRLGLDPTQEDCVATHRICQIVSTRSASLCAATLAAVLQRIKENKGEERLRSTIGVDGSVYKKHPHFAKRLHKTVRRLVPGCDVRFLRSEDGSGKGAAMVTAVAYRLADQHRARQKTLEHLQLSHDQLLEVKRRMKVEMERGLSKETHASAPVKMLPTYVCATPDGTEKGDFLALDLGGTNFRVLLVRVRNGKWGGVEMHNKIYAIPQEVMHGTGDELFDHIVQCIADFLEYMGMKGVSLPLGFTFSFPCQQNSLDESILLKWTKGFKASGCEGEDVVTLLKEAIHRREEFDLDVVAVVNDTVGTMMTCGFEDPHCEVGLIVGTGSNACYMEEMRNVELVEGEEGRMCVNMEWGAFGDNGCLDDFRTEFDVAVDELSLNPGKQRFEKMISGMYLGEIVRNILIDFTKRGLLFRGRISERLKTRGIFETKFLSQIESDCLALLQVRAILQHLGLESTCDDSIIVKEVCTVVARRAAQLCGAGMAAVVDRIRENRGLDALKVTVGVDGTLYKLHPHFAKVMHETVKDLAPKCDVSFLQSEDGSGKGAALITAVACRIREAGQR", "assay": "Inhibition of human HK2 transfected in Escherichia coli BL21 (DE) incubated for 10 mins"}, "[18]": {"target": "T3, Hexokinase-2 (Homo sapiens) (UniProt P52789)", "T3 sequence (whole entry)": "T2 sequence (P52789 whole entry)", "assay": "Mixed inhibition of human HK2 transfected in Escherichia coli BL21 (DE) assessed as increase in Km with decrease in Vmax at 0.25 to 4 uM using glucose as substrate by Lineweaver-Burk plot analysis", "conditions": "dose 0.25-4 µM"}, "[19]": {"target": "T3, Hexokinase-2 (Homo sapiens)", "assay": "Non-competitive inhibition of human HK2 transfected in Escherichia coli BL21 (DE) assessed as constant Km with decrease in Vmax at 0.25 to 4 uM using ATP as substrate by Lineweaver-Burk plot analysis", "conditions": "dose 0.25-4 µM"}, "[20]": {"target": "T3, Hexokinase-2 (Homo sapiens)", "assay": "Binding affinity to human HK2 transfected in Escherichia coli BL21 (DE) assessed as HK2 stabilization at 4 uM at 37 to 55 degreeC incubated for 10 to 30 mins by CETSA", "conditions": "time 10-30 min"}, "Mitochondrial membrane": {"system": "Mitochondrial membrane", "assay": "[…] in human MDA-MB-231 cells at 2.0 uM by JC-1 fluorescent probe based flow cytometric analysis (reference value: 2.56 %)"}, "MDA-MB-231 [21]": {"system": "MDA-MB-231", "assay": "Induction of ROS generation in human MDA-MB-231 cells assessed as increase in green fluorescence at 1 uM incubated for 24 hrs by DCFH-DA staining based flow cytometric analysis (reference value: 62.3 %)", "assay_type": "functional"}, "MDA-MB-231 [22]": {"system": "MDA-MB-231", "assay": "Induction of ROS generation in human MDA-MB-231 cells assessed as increase in green fluorescence incubated for 24 hrs by DCFH-DA staining based flow cytometric analysis relative to control", "assay_type": "functional, cell-based", "conditions": "dose 0.5-2 µM"}},
  "note": "pIC50: −log10 of the molar value. Activity calls are given as the source filed them. The calls are words filed in the database; no cut-off is given here.",
  "data": [
    {"smiles": "O=C(/C=C/c1cn(S(=O)(=O)c2ccc([N+](=O)[O-])cc2)c2ccc(N3CCOCC3)cc12)c1cccnc1", "values": [
      {"measurement": "pIC50", "setting": "LoVo [1]", "result": 6.35},
      {"measurement": "pIC50", "setting": "SW1990", "result": 6.03},
      {"measurement": "IC50 at 48 h", "setting": "[2]", "result": 2320, "unit": "nM"},
      {"measurement": "selectivity ratio", "setting": "[3]", "result": 5},
      {"measurement": "Activity", "setting": "MDA-MB-231 [4]", "result": "Active"},
      {"measurement": "pIC50", "setting": "MDA-MB-231 [5]", "result": 5.79},
      {"measurement": "pIC50", "setting": "HCT-116 [6]", "result": 5.71},
      {"measurement": "pIC50", "setting": "HCT-116 [7]", "result": 6.52},
      {"measurement": "pIC50", "setting": "LoVo [8]", "result": 6.26},
      {"measurement": "pIC50", "setting": "LoVo [9]", "result": 6.20},
      {"measurement": "Activity", "setting": "Tubulin (Homo sapiens) [10]", "result": "Active"},
      {"measurement": "Activity", "setting": "Tubulin (Homo sapiens) [11]", "result": "Active"},
      {"measurement": "Activity", "setting": "MDA-MB-231 [12]", "result": "Active"},
      {"measurement": "Activity", "setting": "MDA-MB-231 [13]", "result": "Active"},
      {"measurement": "Activity", "setting": "MDA-MB-231 [14]", "result": "Active"},
      {"measurement": "Activity", "setting": "MDA-MB-231 [15]", "result": "Active"},
      {"measurement": "Activity", "setting": "MDA-MB-231 [16]", "result": "Dose-dependent-effect"},
      {"measurement": "Activity", "setting": "MDA-MB-231 [17]", "result": "Dose-dependent-effect"},
      {"measurement": "pIC50", "setting": "Hexokinase-2", "result": 5.81},
      {"measurement": "inhibition", "setting": "[18]", "result": "Active"},
      {"measurement": "inhibition", "setting": "[19]", "result": "Active"},
      {"measurement": "Activity", "setting": "[20]", "result": "Active"},
      {"measurement": "Activity", "setting": "Mitochondrial membrane", "result": 32.3, "unit": "%"},
      {"measurement": "Activity", "setting": "MDA-MB-231 [21]", "result": 90.4, "unit": "%"},
      {"measurement": "Activity", "setting": "MDA-MB-231 [22]", "result": "Dose-dependent-effect"}
    ]}
  ]
}
